Measured values reported in US20100160255A1, “SPIRO-CYCLIC COMPOUND” (Takeda Pharmaceutical Company Limited, priority 2005, published 2010).

target: T1, human ACC1 (Homo sapiens, UniProt Q13085); assay: ACC1 inhibitory activity (malachite green absorbance assay, recombinant enzyme); type: biochemical; details: Experimental Example 3; same manner as Experimental Example 1; read-out: IC50 values (ACC1 inhibitory activity)
T1 construct: made in house; host or cells: SF-9 insect cells, recombinant baculovirus BAC-ACC1
Procedure: The ACC1 inhibitory activity of the compound of the present invention was evaluated by the following method.
Human ACC1 gene was cloned by PCR using human liver cDNA library (Clontech) as a template, and Primer 1 and Primer 2 shown below. Primer 1 and Primer 2 were prepared by adding recognition sequence of restriction enzymes SalI and NotI based on the information of the base sequence (Genbank Accession U19822) of human ACC1 gene.
PCR was performed using Pyrobest DNA polymerase (TAKARA BIO INC.). The obtained PCR product was cloned to pT7 Blue vector (Novagen) which was, after confirmation of the base sequence, digested with restriction enzymes SalI and NotI. The obtained DNA fragment was inserted into pFAST-BacHTc (Invitrogen) digested with restriction enzymes SalI and NotI to give expression plasmid ACC1/pFAST-BacHTc.
Using the expression plasmid and BAC-TO-BAC Baculovirus Expression System (Invitrogen), virus stock BAC-ACC1 of recombinant Baculovirus was prepared.
SF-9 cells (Invitrogen) were sown at 1×10^6 cells/mL to insect cell culture medium (1 L, Sf-900II SFM medium (Invitrogen) containing 10% fetal bovine serum (Trace), 50 mg/L gentamicin (Invitrogen) and 0.1% Pluronic F-68 (Invitrogen)), and shaking culture was performed using a 2 L volume Erlenmeyer flask at 27° C., 100 rpm.
After culturing for 24 hr, the recombinant Baculovirus BAC-ACC1 (10 mL) was added, and the mixture was further cultured for 3 days. The culture medium was centrifuged at 1000×g for 5 min to give virus-infected cells. The infected cells were washed with phosphate buffered saline (Invitrogen) and centrifuged under the same conditions, and the obtained cells were cryopreserved at −80° C.
The cryopreserved cells were thawed in ice, suspended in 25 mM HEPES buffer (100 mL, pH 7.5) containing 10% Glycerol, 0.13 M NaCl, 1 mM EDTA, 25 mM sodium β-glycerophosphate, 1 mM sodium orthovanadate, added with Complete Protease Inhibitor (Boehringer). The obtained suspension was homogenized 3 times with a Polytron homogenizer (Kinematica) at 20,000 rpm for 30 seconds. The obtained cell disrupt solution was clarified by centrifugation at 185700×g for 50 min and filtrated using a 0.45 μm filter. The filtrate was passed through a column packed with Ni-NTA Super Flow Gel (QIAGEN, 12 mL) at a flow rate of about 5 mL/min. The column was washed with buffer A (50 mM HEPES containing 0.3M NaCl, pH 7.5), further washed with buffer A containing 20 mM Imidazole, and eluted with buffer A containing 100 mM Imidazole. The eluate was concentrated with Vivaspin 20 (Vivascience) having a molecular weight cut off of 30 K. The obtained concentrate was dialyzed using Sephadex G-25 (Amersham Bioscience K.K., 358 mL) equilibrated with 50 mM HEPES (pH7.5) containing 10 mM MgCl2, 2 mM dithiothreitol, 10 mM tripotassium citrate and 0.3M NaCl. The dialysate was concentrated with Vivaspin 20 (Vivascience) having a molecular weight cut off of 30 K and the concentrate was filtered through a 0.22 μm filter to give ACC1. The obtained ACC1 was cryopreserved at −80° C.
ACC1 (0.93 mg/ml) obtained in (2) above was diluted to a concentration of 8 μg/ml with an enzyme reaction buffer (50 mM HEPES (pH7.5), 10 mM MgCl2, 10 mM tripotassium citrate, 2 mM dithiothreitol, 0.75 mg/ml fatty acid free BSA), and added to each well of a 384 well assay plate (Nunc 265196) by 10 μl. […]

| SMILES | IC50 [nM] |
| --- | --- |
| CCNC(=O)Nc1sc2ccccc2c1C(=O)N1CCC(N2CCNC3(C2)CC(C)(C)OC3=O)CC1 (centres unmarked) [Example 184, 1-(3-{[4-(3,3-dimethyl-1-oxo-2-oxa-6,9-diazaspiro[4.5]dec-9-yl)piperidin-1-yl]carbonyl}-1-benzothien-2-yl)-3-ethylurea] | ≤ 100 |
| CCNC(=O)Nc1sc2ccccc2c1C(=O)N1CCC(N2CCCC3(CC(C)N(CCO)C3=O)C2)CC1 (centres unmarked) [Example 187, 1-ethyl-3-[3-({4-[2-(2-hydroxyethyl)-3-methyl-1-oxo-2,7-diazaspiro[4.5]dec-7-yl]piperidin-1-yl}carbonyl)-1-benzothien-2-yl]urea] | ≤ 100 |
| CC1(C)CC2(CCCN(C3CCN(C(=O)c4c(NC(N)=O)sc5ccccc45)CC3)C2)C(=O)O1 (centres unmarked) [Example 290, N-(3-{[4-(3,3-dimethyl-1-oxo-2-oxa-7-azaspiro[4.5]dec-7-yl)piperidin-1-yl]carbonyl}-1-benzothien-2-yl)urea] | ≤ 100 |
| CNC(=O)Nc1sc2ccccc2c1C(=O)N1CCC(N2CCCC3(C2)CC(C)(C)OC3=O)CC1 (centres unmarked) [Example 324, N-(3-{[4-(3,3-dimethyl-1-oxo-2-oxa-7-azaspiro[4.5]dec-7-yl)piperidin-1-yl]carbonyl}-1-benzothien-2-yl)-N′-methylurea] | ≤ 100 |
| CCNC(=O)Nc1sc2ccccc2c1C(=O)N1CCC(N2CCCC3(C2)OC(=O)N(C(C)(C)C)C3=O)CC1 (centres unmarked) [Example 350, N-(3-{[4-(3-tert-butyl-2,4-dioxo-1-oxa-3,7-diazaspiro[4.5]dec-7-yl)piperidin-1-yl]carbonyl}-1-benzothien-2-yl)-N′-ethylurea] | ≤ 100 |
| CCN1C(=O)C2(CCCN(C3CCN(C(=O)c4c(NC(N)=O)sc5ccccc45)CC3)C2)N=C1C(C)C (centres unmarked) [Example 357, N-(3-{[4-(3-ethyl-2-isopropyl-4-oxo-1,3,7-triazaspiro[4.5]dec-1-en-7-yl)piperidin-1-yl]carbonyl}-1-benzothien-2-yl)urea] | ≤ 100 |

Next, values leading:

| IC50 [nM] | SMILES |
| --- | --- |
| ≤ 100 | Cc1c(C(=O)OC(C)(C)C)sc(NC(N)=O)c1C(=O)N1CCC(N2CCCC3(C2)CC(C)(C)OC3=O)CC1 (centres unmarked) [Example 291, tert-butyl 5-[(aminocarbonyl)amino]-4-{[4-(3,3-dimethyl-1-oxo-2-oxa-7-azaspiro[4.5]dec-7-yl)piperidin-1-yl]carbonyl}-3-methylthiophene-2-carboxylate] |
| ≤ 100 | CCNC(=O)Nc1sc2ccccc2c1C(=O)N1CCC(N2CCCC3(C2)N=C(CC)N(CC)C3=O)CC1 (centres unmarked) [Example 354, N-(3-{[4-(2,3-diethyl-4-oxo-1,3,7-triazaspiro[4.5]dec-1-en-7-yl)piperidin-1-yl]carbonyl}-1-benzothien-2-yl)-N′-ethylurea] |
